Measured values: patent US20230167088A1, “1-PYRAZINYLPYRAZOLYL-3-OXYALKYL ACIDS AND THEIR DERIVATIVES, AND THEIR USE FOR CONTROL OF UNDESIRED PLANT GROWTH” (BAYER AKTIENGESELLSCHAFT, priority 2020, published 2023)

Tests used:
SETVI [1] = experiment: Herbicidal post-emergence action 1a (greenhouse pots, visual rating); format: in vivo, Setaria viridis; conditions: rated visually about 3 weeks after treatment, 100% = plants have died, 0% = like control plants
Summary of the method: (§1)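 Visual scoring versus untreated plants (100% = plants dead, 0% = as control) followed roughly 3 weeks in the greenhouse after treatment. Plants grown in sandy loam pots had been sprayed on green parts at the one-leaf stage, 2–3 weeks post-sowing, with aqueous WP/EC preparations containing 0.5% additive, 600 l/ha, at 320 and/or 80 g/ha.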

MATIN [2] = experiment: as above; format: in vivo, Matricaria inodora; conditions: visual rating about 3 weeks after treatment
Summary of the method: as §1

VERPE [3] = experiment: as above; format: in vivo, Veronica persica; conditions: visual rating about 3 weeks after treatment
Summary of the method: as §1

POLCO [4] = experiment: as above; format: in vivo, Polygonum convolvulus; conditions: visual rating about 3 weeks after treatment
Summary of the method: as §1

AMARE [5] = experiment: as above; format: in vivo, Amaranthus retroflexus; conditions: visual rating about 3 weeks after treatment
Summary of the method: as §1

ALOMY [6] = experiment: as above; format: in vivo, Alopecurus myosuroides; conditions: rated visually about 3 weeks after treatment, 100% = plants have died, 0% = like control plants
Summary of the method: as §1

ECHCG [7] = experiment: as above; format: in vivo, Echinochloa crus-galli; conditions: rated visually about 3 weeks after treatment, 100% = plants have died, 0% = like control plants
Summary of the method: as §1

MATIN [8] = experiment: Herbicidal pre-emergence action 2a (greenhouse pots, visual scoring); format: in vivo, Matricaria inodora; conditions: dosage 320 g/ha, visual scoring after about 3 weeks vs untreated controls
Summary of the method: (§2)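 Seeds were sown in pots, covered with soil, and the compound (WP or EC formulation) was sprayed onto the soil surface as an aqueous suspension or emulsion with 0.5% additive at 600 l/ha water, at 320 g/ha and/or 80 g/ha. Greenhouse growth followed for about 3 weeks, then visual scoring against untreated controls.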

PHBPU [9] = experiment: as above; format: in vivo, Pharbitis purpurea; conditions: dosage 320 g/ha, visual scoring after about 3 weeks vs untreated controls
From the text: (§3) [table] a) Seeds of monocotyledonous and dicotyledonous weed plants and crop plants are placed in plastic or organic plant pots and covered with soil. The compounds of the invention, formulated in the form of wettable powders (WP) or as emulsion concentrates (EC), are then applied onto the surface of the covering soil as aqueous suspension or emulsion with addition of 0.5% additive at a water application rate of 600 1/ha (converted). After the treatment, the pots are placed in a greenhouse and kept under good growth conditions for the trial plants. After about 3 weeks, the effect of the preparations is scored visually in comparison with untreated controls as percentages. For example, 100% activity=the plants have died, 0% activity=like control plants. Tables B1 to B15 below show the effects of selected compounds of the general formula (I) according to Tables 1 and 2 on various harmful plants and an application rate corresponding to 320 g/ha and/or 80 g/ha, which were obtained by the experimental procedure mentioned above.

SETVI [10] = experiment: as above; format: in vivo, Setaria viridis; conditions: dosage 320 g/ha, visual scoring after about 3 weeks vs untreated controls
Summary of the method: as §2

LOLRI [11] = experiment: Herbicidal post-emergence action 1a (greenhouse pots, visual rating); format: in vivo, Lolium rigidum; conditions: rated visually about 3 weeks after treatment, 100% = plants have died, 0% = like control plants
Summary of the method: as §1

ABUTH [12] = experiment: as above; format: in vivo, Abutilon theophrasti; conditions: visual rating about 3 weeks after treatment
Summary of the method: as §1

ALOMY [13] = experiment: Herbicidal pre-emergence action 2a (greenhouse pots, visual scoring); format: in vivo, Alopecurus myosuroides; conditions: dosage 320 g/ha, visual scoring after about 3 weeks
Summary of the method: as §2

POLCO [14] = experiment: as above; format: in vivo, Polygonum convolvulus; conditions: dosage 320 g/ha, visual scoring after about 3 weeks vs untreated controls
Summary of the method: as §2

PHBPU [15] = experiment: Herbicidal post-emergence action 1a (greenhouse pots, visual rating); format: in vivo, Pharbitis purpurea; conditions: visual rating about 3 weeks after treatment
Summary of the method: as §1

AMARE [16] = experiment: Herbicidal pre-emergence action 2a (greenhouse pots, visual scoring); format: in vivo, Amaranthus retroflexus; conditions: dosage 320 g/ha, visual scoring after about 3 weeks vs untreated controls
Summary of the method: as §2

ABUTH [17] = experiment: as above; format: in vivo, Abutilon theophrasti; conditions: dosage 320 g/ha, visual scoring after about 3 weeks vs untreated controls
From the text: as §3

VERPE [18] = experiment: as above; format: in vivo, Veronica persica; conditions: dosage 320 g/ha, visual scoring after about 3 weeks vs untreated controls
Summary of the method: as §2

LOLRI [19] = experiment: as above; format: in vivo, Lolium rigidum; conditions: dosage 320 g/ha, visual scoring after about 3 weeks vs untreated controls
Summary of the method: as §2

AVEFA [20] = experiment: Herbicidal post-emergence action 1a (greenhouse pots, visual rating); format: in vivo, Avena fatua; conditions: rated visually about 3 weeks after treatment, 100% = plants have died, 0% = like control plants
Summary of the method: as §1

AVEFA [21] = experiment: Herbicidal pre-emergence action 2a (greenhouse pots, visual scoring); format: in vivo, Avena fatua; conditions: dosage 320 g/ha, visual scoring after about 3 weeks
Summary of the method: as §2

AMARE [22] = experiment: Herbicidal pre-emergence action 2b (doubly sown, 1280 g/ha); format: in vivo, Amaranthus retroflexus; conditions: doubly sown pots, dosage 1280 g/ha, visual scoring after about 3 weeks
Summary of the method: (§4)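 Sandy loam pots, one mono- or dicot species each, double sowing; seeds covered. Aqueous WP/EC spray + 0.5% additive, 600 L/ha, onto cover soil. GH, ~3 wk, visual % vs control.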

ECHCG [23] = experiment: Herbicidal pre-emergence action 2a (greenhouse pots, visual scoring); format: in vivo, Echinochloa crus-galli; conditions: dosage 320 g/ha, visual scoring after about 3 weeks
Summary of the method: as §2

HORMU = experiment: Herbicidal post-emergence action 1a (greenhouse pots, visual rating); format: in vivo, Hordeum murinum; conditions: rated visually about 3 weeks after treatment, 100% = plants have died, 0% = like control plants
Method: (§5) [table] a) Seeds of monocotyledonous and dicotyledonous weeds and crop plants are placed in sandy loam in plastic or organic plant pots, covered with soil and cultivated in a greenhouse under controlled growth conditions. 2 to 3 weeks after sowing, the test plants are treated at the one-leaf stage. The compounds of the invention, formulated in the form of wettable powders (WP) or as emulsion concentrates (EC), are then sprayed onto the green parts of the plants as aqueous suspension or emulsion with addition of 0.5% additive at a water application rate of 600 1/ha (converted). After the test plants have been kept in the greenhouse under optimum growth conditions for about 3 weeks, the activity of the preparations is rated visually in comparison to untreated controls. For example, 100% activity=the plants have died, 0% activity=like control plants. Tables A1 to A15 below show the effects of selected compounds of the general formula (I) according to Tables 1 and 2 on various harmful plants and an application rate corresponding to 320 g/ha and/or 80 g/ha, which were obtained by the experimental procedure mentioned above.

STEME [24] = experiment: Herbicidal pre-emergence action 2b (doubly sown, 1280 g/ha); format: in vivo, Stellaria media; conditions: doubly sown pots, dosage 1280 g/ha, visual scoring after about 3 weeks
Summary of the method: as §4

VIOTR [25] = experiment: Herbicidal pre-emergence action 2a (greenhouse pots, visual scoring); format: in vivo, Viola tricolor; conditions: dosage 320 g/ha, visual scoring after about 3 weeks vs untreated controls
Summary of the method: as §2

STEME [26] = experiment: Herbicidal post-emergence action 1a (greenhouse pots, visual rating); format: in vivo, Stellaria media; conditions: Dosage 320 g/ha; rated visually about 3 weeks after treatment; 100% = plants have died, 0% = like control plants
Method: as §5

POAAN = experiment: Herbicidal pre-emergence action 2b (doubly sown, 1280 g/ha); format: in vivo, Poa annua; conditions: doubly sown pots, dosage 1280 g/ha, visual scoring after about 3 weeks
Summary of the method: as §4

VIOTR [27] = experiment: Herbicidal post-emergence action 1a (greenhouse pots, visual rating); format: in vivo, Viola tricolor; conditions: visual rating about 3 weeks after treatment
Summary of the method: as §1

DIGSA = experiment: Herbicidal pre-emergence action 2a (greenhouse pots, visual scoring); format: in vivo, Digitaria sanguinalis; conditions: dosage 320 g/ha, visual scoring after about 3 weeks
Summary of the method: as §2

MATIN [28] = experiment: Herbicidal pre-emergence action 2b (doubly sown, 1280 g/ha); format: in vivo, Matricaria inodora; conditions: doubly sown pots, dosage 1280 g/ha, visual scoring after about 3 weeks
Summary of the method: as §4

ECHCG [29] = experiment: as above; format: in vivo, Echinochloa crus-galli; conditions: doubly sown pots, dosage 1280 g/ha, visual scoring after about 3 weeks
Summary of the method: as §4

SMILES | Post-emergence action against SETVI in % (SETVI [1]; Dosage 80 g/ha) | Post-emergence action against SETVI in % (SETVI [1]; Dosage 320 g/ha) | Post-emergence action against VERPE in % (VERPE [3]; dosage 80 g/ha) | Post-emergence action against VERPE in % (VERPE [3]; dosage 320 g/ha) | Post-emergence action against POLCO in % (POLCO [4]; dosage 320 g/ha) | Post-emergence action against AMARE in % (AMARE [5]; dosage 80 g/ha) | Post-emergence action against AMARE in % (AMARE [5]; dosage 320 g/ha) | Post-emergence action against ALOMY in % (ALOMY [6]; Dosage 320 g/ha) | Post-emergence action against ECHCG in % (ECHCG [7]; Dosage 80 g/ha) | Post-emergence action against ECHCG in % (ECHCG [7]; Dosage 320 g/ha) | Pre-emergence action against MATIN in % (MATIN [8]) | Pre-emergence action against PHBPU in % (PHBPU [9]) | Pre-emergence action against SETVI in % (SETVI [10]) | Post-emergence action against LOLRI in % (LOLRI [11]; Dosage 320 g/ha) | Pre-emergence action against ALOMY in % (ALOMY [13]) | Pre-emergence action against POLCO in % (POLCO [14]) | Pre-emergence action against AMARE in % (AMARE [16]) | Pre-emergence action against LOLRI in % (LOLRI [19]) | Post-emergence action against AVEFA in % (AVEFA [20]; Dosage 320 g/ha) | Pre-emergence action against AVEFA in % (AVEFA [21]) | also measured
C[C@@H](Oc1nn(-c2cnccn2)c(-c2cncc(F)c2)c1Cl)C(=O)O [Example I-97] | 90% | 90% | 90% | 90% | 90% | 90% | 90% | 90% | 90% | 90% | 100% | 100% | 100% | 100% | 100% | 90% | 100% | 100% | 100% | 90% | Post-emergence action against MATIN in % (MATIN [2]; dosage 80 g/ha): 90%; Post-emergence action against MATIN in % (MATIN [2]; dosage 320 g/ha): 90%; Post-emergence action against POLCO in % (POLCO [4]; dosage 80 g/ha): 90%; Post-emergence action against LOLRI in % (LOLRI [11]; Dosage 80 g/ha): 90%; Post-emergence action against ABUTH in % (ABUTH [12]; dosage 80 g/ha): 90%; Post-emergence action against ABUTH in % (ABUTH [12]; dosage 320 g/ha): 90%; Post-emergence action against PHBPU in % (PHBPU [15]; dosage 80 g/ha): 90%; Post-emergence action against PHBPU in % (PHBPU [15]; dosage 320 g/ha): 100%; Pre-emergence action against ABUTH in % (ABUTH [17]): 90%; Pre-emergence action against VERPE in % (VERPE [18]): 100%
COC(=O)COc1nn(-c2cnccn2)c(-c2ccnc(F)c2)c1Br [Example I-09] | – | – | 90% | – | 100% | – | – | 90% | 80% | 80% | – | – | 90% | 90% | 90% | 100% | 100% | 90% | 90% | 90% | Pre-emergence action at 1280 g/ha against AMARE in % (AMARE [22]): 90%; Pre-emergence action against ECHCG in % (ECHCG [23]): 100%; Post-emergence action against HORMU in % (HORMU; Dosage 80 g/ha): 80%; Post-emergence action against HORMU in % (HORMU; Dosage 320 g/ha): 90%; Pre-emergence action at 1280 g/ha against STEME in % (STEME [24]): 100%; Post-emergence action against ALOMY in % (ALOMY [6]; Dosage 80 g/ha): 80%; Pre-emergence action against VIOTR in % (VIOTR [25]): 90%; Post-emergence action against STEME in % (STEME [26]): 80%; Pre-emergence action at 1280 g/ha against POAAN in % (POAAN): 100%; Post-emergence action against VIOTR in % (VIOTR [27]; dosage 80 g/ha): 90%; Post-emergence action against VIOTR in % (VIOTR [27]; dosage 320 g/ha): 90%; Pre-emergence action against DIGSA in % (DIGSA): 100%; Pre-emergence action at 1280 g/ha against MATIN in % (MATIN [28]): 100%; Post-emergence action against AVEFA in % (AVEFA [20]; Dosage 80 g/ha): 90%; Pre-emergence action at 1280 g/ha against ECHCG in % (ECHCG [29]): 100%
O=C(O)COc1nn(-c2cnccn2)c(-c2cncc(F)c2)c1Cl [Example I-92] | 80% | 80% | 80% | 90% | – | 80% | 90% | 80% | 90% | 90% | 100% | 90% | 100% | 90% | 90% | 90% | 100% | 100% | 90% | 100% | Pre-emergence action against ECHCG in % (ECHCG [23]): 90%; Post-emergence action against ABUTH in % (ABUTH [12]; dosage 320 g/ha): 90%; Post-emergence action against PHBPU in % (PHBPU [15]; dosage 80 g/ha): 80%; Post-emergence action against PHBPU in % (PHBPU [15]; dosage 320 g/ha): 90%; Pre-emergence action against ABUTH in % (ABUTH [17]): 90%; Pre-emergence action against VERPE in % (VERPE [18]): 100%; Post-emergence action against AVEFA in % (AVEFA [20]; Dosage 80 g/ha): 90%
